Where “and” joins values, the source holds several entries; their conditions need not be identical. Equal values may be shown once. Read-outs that look alike come from different tables or passages of the source.
Experiments:
[1] = molecular target: T1, ABL1-N-HiBiT kinase domain (Homo sapiens, UniProt P00519); experiment: SDR assay, ABL1-N-HiBiT; details: for SDR output: ABL1-N-HiBiT, Log [Compound]
T1 sequence (P00519 233-500): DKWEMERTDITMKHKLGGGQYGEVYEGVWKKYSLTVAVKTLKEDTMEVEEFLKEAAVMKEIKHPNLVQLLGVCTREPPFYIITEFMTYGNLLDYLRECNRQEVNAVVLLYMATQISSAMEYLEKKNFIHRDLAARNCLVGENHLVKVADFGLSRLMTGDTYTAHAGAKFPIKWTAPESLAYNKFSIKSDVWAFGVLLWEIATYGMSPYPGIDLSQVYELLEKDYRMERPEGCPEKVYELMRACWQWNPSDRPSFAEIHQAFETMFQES

[2] = molecular target: T2, ABL1-C-HiBiT kinase domain (Homo sapiens, UniProt P00519); experiment: SDR assay, ABL1-C-HiBiT; details: for SDR output: ABL1-C-HiBiT, Log [Compound]
T2 sequence (P00519 233-500): T1 sequence (P00519 233-500)

[3] = molecular target: T1, ABL1-N-HiBiT kinase domain; experiment: ABL1 peptide phosphorylation, Kinase-Glo Plus (KGP) assay, ABL1-N-HiBiT; assay type: biochemical; set-up: containing amino acid residues Asp233-Ser500; His10 (N); made in house; host or cells: E. coli BL21(DE3)
PKA = details: annotation yes/no for kinase library compound; source not given; cited from earlier work
PKA-N-HiBiT = PKA-N-HiBiT (Homo sapiens, UniProt P17612); experiment: SDR assay, PKA-N-HiBiT; details: read-out: SDR Ave Max Response
DHFR-C-HiBiT [4] = molecular target: T3, DHFR-C-HiBiT (Homo sapiens, UniProt P00374); experiment: SDR assay, purified DHFR-C-HiBiT; details: for enhanced sensitivity in the SDR assay format versus functional DHFR assay: DHFR-C-HiBiT 0.5 nM, 5 μM NADPH (SDR) vs 100 nM, 75 μM NADPH (functional)
T3 sequence (P00374 2-187): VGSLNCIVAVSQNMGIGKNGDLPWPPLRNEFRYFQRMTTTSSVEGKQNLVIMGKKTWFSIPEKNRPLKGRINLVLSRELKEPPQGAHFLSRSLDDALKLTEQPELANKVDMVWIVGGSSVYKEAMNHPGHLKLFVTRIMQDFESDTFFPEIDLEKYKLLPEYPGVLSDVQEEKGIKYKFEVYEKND

[5] = molecular target: T4, endogenous DHFR-C-HiBiT in HEK293 cell lysate (Homo sapiens, UniProt P00374); experiment: SDR assay, cellular lysate from DHFR C-terminus HiBiT gene edited HEK293 cells; assay type: binding
T4 construct: from a mammalian cellular lysate containing an endogenous α-peptide tagged protein, obtained using CRISPR/Cas9-mediated homologous recombination; host or cells: HEK293 constitutively expressing S. pyogenes Cas9, CRISPR/HDR-edited monoclonal line; NP-40 lysate used at 1:100
T4 sequence (P00374 1-187): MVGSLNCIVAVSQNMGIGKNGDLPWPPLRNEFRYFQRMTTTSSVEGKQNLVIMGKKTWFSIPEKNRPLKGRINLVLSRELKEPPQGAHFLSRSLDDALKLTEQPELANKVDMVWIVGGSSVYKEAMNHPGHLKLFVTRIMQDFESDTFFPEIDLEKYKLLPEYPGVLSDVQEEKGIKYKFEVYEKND
Description: A HEK293 cell line constitutively expressing S. pyogenes Cas9 (GeneCopoeia, Cat # SL553) was used to generate the C-terminal edit of the DHFR gene (DHFR-C-HiBiT) applying general methodology previously described[24],[52],[53]. The DHFR 3’-gene sequence surrounding the stop codon (underlined), […] […], used to generate the CRISPR-Cas9 crRNA sequence, […], was accomplished with IDT software (Custom Alt-R CRISPR-Cas9 guide RNA).
For lysate preparation, the DHFR-C-HiBiT gene edited HEK293 monoclonal cell line was grown in a T75 flask (DMEM, 10% FBS, 1% P/S) to confluence. […] The cell pellet was lysed by adding 500 μL ice-cold NP-40 lysis buffer (ThermoFisher Scientific, Cat # FNN0021) containing 5 µL 100x protease inhibitor cocktail in DMSO (Sigma Aldrich, Cat # P8340-1mL) incubated on a rocker at 4 °C for 1 h (protected from light), centrifuged at 15,000 g for 10 min at 4 °C, after which supernatant was transferred to a 1.5 mL Eppendorf tube, and frozen at −80 °C.
Protein-HiBiT targets were expressed and purified to various levels of homogeneity and optimized at indicated concentrations, not necessarily the lowest possible concentrations, to produce consistent luminescence with statistically significant signal above no protein background control in target specific assay buffer (see Supplementary Table 11). Four μL/well buffer control (column 1) and NLuc or HiBiT tagged proteins (columns 2-48) were dispensed into 1536-well Greiner Bio-One white, high solid base, medium bind plates with a BioRaptr 2. Compounds and controls were added to the microtiter plates as described in Supplementary Data 8, then incubated and protected from light for 30 min at ambient temperature. A modified dispensing protocol was developed for aqueous ligands that were unable to be transferred by pintool (see Supplementary Table 10 aqueous ligand dispense section). The substrate solution was prepared according to manufacturer’s protocol where ω-fragment (LgBiT) was added at 1:100 dilution and NLuc substrate (furimazine) was prepared at 1:50 dilution in Nano-Glo HiBiT lytic buffer (Promega, Cat # N3040). This substrate solution, 3 μL/well, was added with a BioRaptr 2 and assay plates were protected from light and incubated for 10 min at ambient temperature. NLuc luminescence was measured on a ViewLux CCD plate reader with optimized reader settings to each protein target (see Supplementary Tables 10, 11 and Supplementary Fig. 14 for additional details).

DHFR-C-HiBiT [6] = molecular target: T3, DHFR-C-HiBiT; experiment: Dihydrofolate reductase enzymatic absorbance assay; assay type: biochemical; set-up: His10 (C); made in house; host or cells: E. coli
Method: To accommodate consistent compound addition used in this study, DHFR enzymatic activity[72],[73] was measured in a 1536-well miniaturized assay adapted from the Sigma-Aldrich dihydrofolate reductase assay (Cat # CS0340). […] Compounds and controls were added as above to each plate as described in Supplementary Data 8. DHFR-C-HiBiT was incubated with compounds for 20 min at ambient temperature. […] Then 2 µL of dihydrofolate (DHF, Sigma-Aldrich, Cat # D7006) substrate, freshly prepared according to manufacturer’s protocol and diluted in 1X assay kit buffer, was dispensed into each microplate well with a BioRaptr 2 for a final assay DHF concentration of 100 μM. […] See Supplementary Table 9 for additional details.
Supplementary Table 9. Protocol for Dihydrofolate reductase (DHFR) enzymatic absorbance […]
Supplementary Table 9: Protocol for Dihydrofolate reductase (DHFR) enzym atic absorbance assay Sequence Param eter ValueDescription
No enzym e control (colum n 1) and enzym e solution (100 nM DHFR-C-HiBiT final assay […]
(Aurora), dispensed with BioRaptr 2 […]
com pounds transferred to respective colum ns with Pintool
2b Test Com pounds 23 nLfinal concentration range) in colum ns 5-48; com pounds transferred to respective wells with […]
3 Incubation 20 m inIncubate enzym e + com pounds at am bient tem p for 20 m in, protected from light 5 Reagent 2 µLSubstrate solution; dihydrofolic acid (100 µM final concentration) in 1X assay buffer; dispensed with BioRaptr 2
6 Incubation 10 m inAm bient tem perature, protected from light
Dihydrofolic acid substrate solution: 1X assay buffer (Sigm a-Aldrich, Cat # A5603); 300 µM dihydrofolic acid (100 µM 5 final) (Sigm a-Aldrich, Cat # D7006) prepared fresh according to m anufacturer’s protocol. Solution filtered through 0.22 µm syringe filter prior to dispense.

O=C(NCCO)c1cccc(-c2cc(Nc3ccc(OC(F)(F)F)cc3)ncn2)c1 [GNF5]
SDR output ([1]; M -4.51): -1.2 | SDR output ([1]; M -8.12): 1.9 and 2.5 | SDR output ([1]; M -8.42): 2.5 | SDR output ([1]; M -8.72): 2.7 and 1.9 | SDR output ([2]; M -4.20): 11.5 and 10.7 | SDR output ([2]; M -5.41): 4.5 and 3.0 | SDR output ([2]; M -5.71): 0.159 and 0.3 | SDR output ([2]; M -7.21): 1.8 and 1.6 | SDR output ([2]; M -7.52): 3.3 and 3.0 | SDR output ([2]; M -7.82): 5.4 and 5.3 | SDR output ([2]; M -8.12): 3.3 and 3.7 | SDR output ([2]; M -8.42): 7.4 and 4.5 | Effect on enzyme catalysis ([3]; Log [Compound], M -4.51): 1.2 and 2.4

O=C(NCCO)c1cccc(-c2cc(Nc3ccc(OC(F)(F)F)cc3)ncn2)c1 [GNF-5, reference compound]
Annotated PKA activity (PKA): no | Emax (PKA-N-HiBiT): 1.25% | detection in ABL1-N-HiBiT SDR assay (in words) [1]: neither was identified | Emax ([1]; read-out: SDR Ave Max Response): 13.8% | detection in ABL1-C-HiBiT SDR assay (in words) [2]: beginning to detect | detection in functional enzymatic ABL1 kinase assay (in words) ([3]; KGP assay): neither was identified

Nc1nc(N)c2nc(CNc3ccc(C(=O)N[C@@H](CCC(=O)O)C(=O)O)cc3)cnc2n1 [aminopterin]
enhanced sensitivity in the SDR assay format versus functional DHFR assay (DHFR-C-HiBiT [4]): ~ 100 fold

CN(Cc1cnc2nc(N)nc(N)c2n1)c1ccc(C(=O)NC(CC(F)C(=O)O)C(=O)O)cc1 (stereo not drawn) [g-fluoromethotrexate]
pSDR50 (lysate + 1 mM NADPH), Mean ([5]; 1:100 lysate (~0.2 nM) with 1 mM NADPH): 9.1 | pSDR50 (lysate), Mean ([5]; 1:100 lysate (~0.2 nM) without added NADPH): 7.8 | pSDR50 (DHFR-C-HiBiT), Mean (DHFR-C-HiBiT [4]; SDR assay using DHFR-C-HiBiT (0.5 nM)): 8.70 | pIC50 (DHFR Enz Assay), Mean (DHFR-C-HiBiT [6]; functional DHFR-C-HiBiT assay (100 nM, 75 mM NADPH)): 6.55

Nc1nc2[nH]cc(CCc3ccc(C(=O)N[C@@H](CCC(=O)O)C(=O)O)cc3)c2c(=O)[nH]1 [pemetrexed]
DHFR binding in SDR assay (in words) (DHFR-C-HiBiT [4]; purified DHFR-C-HiBiT): poor DHFR affinity | DHFR affinity in functional assay (in words) (DHFR-C-HiBiT [6]; DHFR-C-HiBiT 100 nM, 75 μM NADPH): poor DHFR affinity

C#CCC(Cc1cnc2nc(N)nc(N)c2n1)c1ccc(C(=O)N[C@@H](CCC(=O)O)C(=O)O)cc1 (stereo partly drawn) [pralatrexate]
EC50 ([5]; 1:100 lysate (~0.2 nM) with 1 mM NADPH, read-out: pSDR50 (lysate + 1 mM NADPH), Mean (converted)): 0.316 nM | EC50 ([5]; 1:100 lysate (~0.2 nM) without added NADPH, read-out: pSDR50 (lysate), Mean (converted)): 3.16 nM | EC50 (DHFR-C-HiBiT [4]): 1.02 nM | enhanced sensitivity in the SDR assay format versus functional DHFR assay (DHFR-C-HiBiT [4]): ~ 100 fold | IC50 (DHFR-C-HiBiT [6]; functional DHFR-C-HiBiT assay (100 nM), read-out: pIC50 (DHFR Enz Assay), Mean (converted)): 107 nM

COc1cc(NCc2ccc3nc(N)nc(N)c3c2C)cc(OC)c1OC [trimetrexate]
enhanced sensitivity in the SDR assay format versus functional DHFR assay (DHFR-C-HiBiT [4]): ~ 100 fold

CN(Cc1cnc2nc(N)nc(N)c2n1)c1ccc(C(=O)NC(CC(F)C(=O)O)C(=O)O)cc1 (stereo not drawn) [γ-fluoromethotrexate]
enhanced sensitivity in the SDR assay format versus functional DHFR assay (DHFR-C-HiBiT [4]): ~ 100 fold
